In PubChem BioAssay AID1745844 (Carcinogenic Potency Database (CPDB), 2022):
Active and inactive are the calls of the source. How the calls were made is not given here.

System: rodent lifetime carcinogenesis bioassay, tumor incidence TD50
Assay: carcinogenic potency in animals, long-term in vivo studies, CPDB compilation (AID 1745844)
Settings: rat, in feed

Compound: OCC(CO)(CBr)CBr
- TD50 (strain Fischer 344, males, site: kidney, lesion: tubule adenoma, dosed 12 weeks, study length 103 weeks): 970 mg/kg/day
- TD50 (strain Fischer 344, males, site: kidney, lesion: tubule adenoma, dosed 104 weeks, study length 105 weeks): 1550 mg/kg/day
- TD50 (strain Fischer 344, males, site: liver, lesion: hepatocellular adenoma + hepatoblastoma + hepatocellular carcinoma, dosed 12 weeks, study length 103 weeks): 702 mg/kg/day
- TD50 (strain Fischer 344, males, site: liver, lesion: hepatocellular adenoma + hepatoblastoma + hepatocellular carcinoma, dosed 104 weeks, study length 105 weeks): 1840 mg/kg/day
- TD50 (strain Fischer 344, males, site: lung, lesion: alveolar/bronchiolar adenoma + alveolar/bronchiolar carcinoma, dosed 12 weeks, study length 103 weeks): 52.4 mg/kg/day
- TD50 (strain Fischer 344, males, site: lung, lesion: alveolar/bronchiolar adenoma + alveolar/bronchiolar carcinoma, dosed 104 weeks, study length 105 weeks): 729 mg/kg/day
- TD50 (strain Fischer 344, males, site: lung, lesion: alveolar/bronchiolar adenoma, dosed 12 weeks, study length 103 weeks): 73.1 mg/kg/day
- TD50 (strain Fischer 344, males, site: lung, lesion: alveolar/bronchiolar carcinoma, dosed 12 weeks, study length 103 weeks): 327 mg/kg/day
- TD50 (strain Fischer 344, males, site: lung, lesion: alveolar/bronchiolar carcinoma, dosed 104 weeks, study length 105 weeks): 1300 mg/kg/day
- TD50 (strain Fischer 344, males, site: lung, lesion: squamous-cell carcinoma, dosed 12 weeks, study length 103 weeks): 484 mg/kg/day
- TD50 (strain Fischer 344, males, site: mammary gland, lesion: adenoma + fibroadenoma, dosed 104 weeks, study length 105 weeks): 262 mg/kg/day
- TD50 (strain Fischer 344, males, site: mammary gland, lesion: fibroadenoma, dosed 12 weeks, study length 103 weeks): 78.3 mg/kg/day
- TD50 (strain Fischer 344, males, site: mammary gland, lesion: fibroadenoma, dosed 104 weeks, study length 105 weeks): 275 mg/kg/day
- TD50 (strain Fischer 344, males, site: palate + tongue, lesion: squamous-cell carcinoma + squamous-cell papilloma, dosed 12 weeks, study length 103 weeks): 24 mg/kg/day
- TD50 (strain Fischer 344, males, site: palate + tongue, lesion: squamous-cell papilloma, dosed 12 weeks, study length 103 weeks): 24.6 mg/kg/day
- TD50 (strain Fischer 344, males, site: palate + tongue, lesion: squamous-cell papilloma, dosed 104 weeks, study length 105 weeks): 300 mg/kg/day
- TD50 (strain Fischer 344, males, site: palate, lesion: squamous-cell papilloma, dosed 12 weeks, study length 103 weeks): 115 mg/kg/day
- TD50 (strain Fischer 344, males, site: palate, lesion: squamous-cell papilloma, dosed 104 weeks, study length 105 weeks): 808 mg/kg/day
- TD50 (strain Fischer 344, males, site: pancreas, lesion: acinar-cell adenoma, dosed 12 weeks, study length 103 weeks): 193 mg/kg/day
- TD50 (strain Fischer 344, males, site: pancreas, lesion: acinar-cell adenoma, dosed 104 weeks, study length 105 weeks): 516 mg/kg/day
- TD50 (strain Fischer 344, males, site: pancreatic islets, lesion: islet-cell adenoma + islet-cell carcinoma, dosed 104 weeks, study length 105 weeks): 208 mg/kg/day
- TD50 (strain Fischer 344, males, site: pituitary gland, lesion: pars distalis adenoma + pars distalis carcinoma, dosed 104 weeks, study length 105 weeks): 462 mg/kg/day
- TD50 (strain Fischer 344, males, site: pituitary gland, lesion: pars distalis adenoma, dosed 12 weeks, study length 103 weeks): 67.3 mg/kg/day
- TD50 (strain Fischer 344, males, site: pituitary gland, lesion: pars distalis adenoma, dosed 104 weeks, study length 105 weeks): 493 mg/kg/day
- TD50 (strain Fischer 344, males, site: preputial gland, lesion: adenoma + carcinoma, dosed 12 weeks, study length 103 weeks): 39 mg/kg/day
- TD50 (strain Fischer 344, males, site: preputial gland, lesion: adenoma + carcinoma, dosed 104 weeks, study length 105 weeks): 793 mg/kg/day
- TD50 (strain Fischer 344, males, site: preputial gland, lesion: adenoma, dosed 12 weeks, study length 103 weeks): 22.8 mg/kg/day
- TD50 (strain Fischer 344, males, site: preputial gland, lesion: adenoma, dosed 104 weeks, study length 105 weeks): 819 mg/kg/day
- TD50 (strain Fischer 344, males, site: seminal vesicle, lesion: adenoma + carcinoma, dosed 12 weeks, study length 103 weeks): 453 mg/kg/day
- TD50 (strain Fischer 344, males, site: skin, lesion: basal-cell adenoma + basal-cell carcinoma + keratoacanthoma + squamous-cell carcinoma + squamous-cell papilloma + trichoepitheliom, dosed 104 weeks, study length 105 weeks): 166 mg/kg/day
- TD50 (strain Fischer 344, males, site: skin, lesion: basal-cell adenoma + basal-cell carcinoma + trichoepithelioma, dosed 104 weeks, study length 105 weeks): 720 mg/kg/day
- TD50 (strain Fischer 344, males, site: skin, lesion: basal-cell adenoma + keratoacanthoma + squamous-cell carcinoma + squamous-cell papilloma + trichoepithelioma, dosed 12 weeks, study length 103 weeks): 16.9 mg/kg/day
- TD50 (strain Fischer 344, males, site: skin, lesion: basal-cell adenoma + trichoepithelioma, dosed 12 weeks, study length 103 weeks): 64.6 mg/kg/day
- TD50 (strain Fischer 344, males, site: skin, lesion: basal-cell adenoma, dosed 12 weeks, study length 103 weeks): 82.3 mg/kg/day
- TD50 (strain Fischer 344, males, site: skin, lesion: basal-cell adenoma, dosed 104 weeks, study length 105 weeks): 1530 mg/kg/day
- TD50 (strain Fischer 344, males, site: skin, lesion: keratoacanthoma, dosed 12 weeks, study length 103 weeks): 42.5 mg/kg/day
- TD50 (strain Fischer 344, males, site: skin, lesion: keratoacanthoma, dosed 104 weeks, study length 105 weeks): 235 mg/kg/day
- TD50 (strain Fischer 344, males, site: skin, lesion: squamous-cell carcinoma + squamous-cell papilloma, dosed 12 weeks, study length 103 weeks): 21.7 mg/kg/day
- TD50 (strain Fischer 344, males, site: skin, lesion: squamous-cell carcinoma + squamous-cell papilloma, dosed 104 weeks, study length 105 weeks): 1130 mg/kg/day
- TD50 (strain Fischer 344, males, site: skin, lesion: squamous-cell papilloma, dosed 12 weeks, study length 103 weeks): 46.2 mg/kg/day
- TD50 (strain Fischer 344, males, site: skin, lesion: squamous-cell papilloma, dosed 104 weeks, study length 105 weeks): 1130 mg/kg/day
- TD50 (strain Fischer 344, males, site: subcutaneous tissue, lesion: fibroma, dosed 12 weeks, study length 103 weeks): 111 mg/kg/day
- TD50 (strain Fischer 344, males, site: subcutaneous tissue, lesion: fibroma, dosed 104 weeks, study length 105 weeks): 271 mg/kg/day
- TD50 (strain Fischer 344, males, site: subcutaneous tissue, lesion: fibrosarcoma + fibroma + sarcoma, dosed 12 weeks, study length 103 weeks): 87.3 mg/kg/day
- TD50 (strain Fischer 344, males, site: subcutaneous tissue, lesion: fibrosarcoma + fibroma + sarcoma, dosed 104 weeks, study length 105 weeks): 221 mg/kg/day
- TD50 (strain Fischer 344, males, site: subcutaneous tissue, lesion: fibrosarcoma + sarcoma, dosed 12 weeks, study length 103 weeks): 654 mg/kg/day
- TD50 (strain Fischer 344, males, site: subcutaneous tissue, lesion: fibrosarcoma + sarcoma, dosed 104 weeks, study length 105 weeks): 1080 mg/kg/day
- TD50 (strain Fischer 344, males, site: subcutaneous tissue, lesion: sarcoma, dosed 104 weeks, study length 105 weeks): 1550 mg/kg/day
- TD50 (strain Fischer 344, males, site: testis, lesion: interstitial-cell adenoma, bilateral + interstitial-cell adenoma, dosed 12 weeks, study length 103 weeks): 5.94 mg/kg/day
- TD50 (strain Fischer 344, males, site: testis, lesion: interstitial-cell adenoma, bilateral + interstitial-cell adenoma, dosed 104 weeks, study length 105 weeks): 66.5 mg/kg/day
- TD50 (strain Fischer 344, males, site: thyroid gland, lesion: c-cell adenoma + c-cell carcinoma, bilateral + c-cell carcinoma, dosed 104 weeks, study length 105 weeks): 675 mg/kg/day
- TD50 (strain Fischer 344, males, site: thyroid gland, lesion: c-cell carcinoma, bilateral + c-cell carcinoma, dosed 104 weeks, study length 105 weeks): 1920 mg/kg/day
- TD50 (strain Fischer 344, males, site: thyroid gland, lesion: follicular-cell adenoma + follicular-cell carcinoma, dosed 12 weeks, study length 103 weeks): 82.6 mg/kg/day
- TD50 (strain Fischer 344, males, site: thyroid gland, lesion: follicular-cell adenoma + follicular-cell carcinoma, dosed 104 weeks, study length 105 weeks): 629 mg/kg/day
- TD50 (strain Fischer 344, males, site: thyroid gland, lesion: follicular-cell adenoma, dosed 12 weeks, study length 103 weeks): 132 mg/kg/day
- TD50 (strain Fischer 344, males, site: thyroid gland, lesion: follicular-cell carcinoma, dosed 104 weeks, study length 105 weeks): 1110 mg/kg/day
- TD50 (strain Fischer 344, males, site: tongue, lesion: squamous-cell papilloma, dosed 12 weeks, study length 103 weeks): 30.8 mg/kg/day
- TD50 (strain Fischer 344, males, site: tongue, lesion: squamous-cell papilloma, dosed 104 weeks, study length 105 weeks): 500 mg/kg/day
- TD50 (strain Fischer 344, males, site: urinary bladder, lesion: transitional-cell carcinoma + transitional-cell papilloma, dosed 12 weeks, study length 103 weeks): 223 mg/kg/day
- TD50 (strain Fischer 344, males, site: urinary bladder, lesion: transitional-cell carcinoma + transitional-cell papilloma, dosed 104 weeks, study length 105 weeks): 2320 mg/kg/day
- TD50 (strain Sprague-Dawley Spartan, females, site: any site (literature study), lesion: several types, types named in the paper, dosed 104 weeks, study length 104 weeks): 1730 mg/kg/day (inactive)
- carcinogen call (strain Sprague-Dawley Spartan, females, site: liver, lesion: hepatocellular carcinoma, dosed 104 weeks, study length 104 weeks): negative (inactive)
- TD50 (strain Sprague-Dawley Spartan, females, site: liver, lesion: hepatocellular hyperplastic nodule, dosed 104 weeks, study length 104 weeks): 2550 mg/kg/day (inactive)
- carcinogen call (strain Sprague-Dawley Spartan, males, site: any site (literature study), lesion: several types, types named in the paper, dosed 104 weeks, study length 104 weeks): negative (inactive)
- carcinogen call (strain Sprague-Dawley Spartan, males, site: liver, lesion: hepatocellular carcinoma, dosed 104 weeks, study length 104 weeks): negative (inactive)
- carcinogen call (strain Sprague-Dawley Spartan, males, site: liver, lesion: hepatocellular hyperplastic nodule, dosed 104 weeks, study length 104 weeks): negative (inactive)
